Test results as given in patent US7105550B2, “2,4-disubstituted thiazolyl derivatives” (priority 2000, dated 2006).

Tests used:
[1] = system: TNF-α production; assay: In vitro inhibition of TNF-α production in human blood; assay type: cell-based; details: human whole blood, lipopolysaccharide stimulation
Method: (§1) Human Whole Blood Stimulation
(§2) Peripheral blood from healthy male donors was drawn into heparinized syringes (12.5 U heparin/ml). Blood samples were three-fold diluted in RMPI 1640 medium (Life Technologies, Belgium) supplemented with 2 mM L-glutamine, 100 U/ml penicillin and 100 μg/ml streptomycin, and 300 μl fractions were distributed in 24-well multidisc plates (Nunc, Roskilde, Denmark). Blood samples were preincubated (60 minutes at 37° C.) in a humidified 6% CO2-atmosphere with 100 A1 of drug solvent (final concentration 0.02% dimethylsulfoxide in RPMI 1640) or with 100 μl of an appropriate dose of test compound before being stimulated by the addition of 100 μl of lipopolysaccharide at a final concentration of 100 ng/ml. After 6 hours, cell-free supernatant fluids were collected by centrifugation and stored at −20° C. until tested for the presence of TNF-α.
(§3) Cytokine protein concentrations were determined by sandwich ELISA as described in Van Wauwe et al. (1996, Inflamm Res, 45, 357–363). Murine monoclonals used as capture antibodies to human cytokines were obtained from R&D Systems (Abingdon, United Kingdom) and code named MAB210 and MAB611 for TNF-α and IL-12 respectively. Butinylated goat polyclonal antibodies used to detect human cytokines were from R&D Systems (BAF210, BAF219). Cytokine levels were calculated from standard curves using recombinant cytokines supplied by R&D Systems.

[2] = system: IL-12 production; assay: In vitro inhibition of IL-12 production in human blood; assay type: cell-based; details: human whole blood, lipopolysaccharide 100 ng/ml, 24 hours
Method: as §1
as §2, with “100 μl” for “100 A1”, “After 24” for “After 6”, “of IL-12.” for “of TNF-α.”
as §3

Row | SMILES | % inhib. TNF-α ([1]; test dose 1 × 10^−6 M) [%] | % inhib. TNF-α ([1]; test dose 1 × 10^−7 M) [%] | % inhib. IL-12 (p40) ([2]; test dose 1 × 10^−6 M) [%] | % inhib. IL-12 (p40) ([2]; test dose 1 × 10^−7 M) [%]
1 | Br.Cc1cccc(Nc2nc(-c3cnc4cnccn34)cs2)c1.O [compound 115] | 58 | 53 | 75 | 67
2 | FC(F)(F)c1cccc(Nc2nc(-c3cncnc3)cs2)c1 [compound 517] | 61 | 57 | 74 | 68
3 | COc1ccc(Nc2nc(-c3cnc4ccccn34)cs2)cn1 [compound 573] | 53 | 45 | 67 | 61
4 | Cc1ccc(Nc2nc(-c3cnc4ccccn34)cs2)cc1.Cl [Compound 39] | 53 | 59 | 64 | 71
5 | Br.Cc1ccc(Nc2nc(-c3cnc4ncccn34)cs2)cc1Cl [compound 286] | 50 | 48 | 60 | 63
6 | Cl.Cl.Clc1cccc(Nc2nc(-c3c[nH]c4ncccc34)cs2)c1Cl [Compound 166] | 48 | 37 | 62 | 55
7 | Brc1ccc(Nc2nc(-c3cnc4ccccn34)cs2)cc1.Cl [Compound 509] | 46 | 54 | 64 | 68
8 | Cl.Clc1cccc(Nc2nc(-c3ncc4ccccn34)cs2)c1Cl [compound 410] | 39 | 43 | 53 | 58
9 | Br.Cc1ncc(-c2csc(Nc3ccc(Cl)nc3)n2)n1C [Compound 527] | 37 | 43 | 61 | 66
10 | Cl.c1ccc(Nc2nc(-c3c[nH]c4ccccc34)cs2)cc1 [Compound 9] | 37 | 39 | 49 | 53
11 | Cl.FC(F)(F)c1cncc(Nc2nc(-c3cnc4ccccn34)cs2)c1 [compound 584] | 53 | 49 | 75 | 68
12 | Cl.Clc1cccc(Nc2nc(-c3cnc4sccn34)cs2)c1Cl [compound 551] | 44 | 40 | 71 | 71
13 | Cc1cccc(Nc2nc(-c3cnc4ccccn34)cs2)c1.Cl [Compound 31] | 55 | 49 | 66 | 68
14 | Cc1ccc(Nc2nc(-c3cnc4ccccn34)cs2)cc1Cl.Cl [Compound 476] | 58 | 53 | 75 | 71
15 | Cl.c1ccn2c(-c3csc(Nc4ccc5ncsc5c4)n3)cnc2c1 [compound 587] | 56 | 56 | 79 | 75
16 | Cl.FC(F)(F)c1cccc(Nc2nc(-c3cnc4sccn34)cs2)c1 [compound 549] | 50 | 47 | 74 | 71
17 | Br.FC(F)(F)c1cccc(Nc2nc(-c3cnc4ccccn34)cs2)c1 [Compound 81] | 51 | 47 | 65 | 67
18 | Br.COc1ccc(Nc2nc(-c3cnc4ccccn34)cs2)cc1 [Compound 74] | 56 | 48 | 70 | 67
19 | Cc1ccc(Nc2nc(-c3cnc4ccccn34)cs2)cn1.Cl.Cl.O.O [compound 577] | 50 | 49 | 77 | 71
20 | Br.FC(F)(F)c1cccc(Nc2nc(-c3cnc4ccccc4c3)cs2)c1.O [compound 100] | 43 | 41 | 53 | 51
21 | Cl.Clc1cccc(Nc2nc(-c3cnc4ccccn34)cs2)c1Cl.O [Compound 45] | 49 | 48 | 64 | 65
22 | Cl.Fc1cccc(-c2csc(Nc3cccc(C(F)(F)F)c3)n2)c1 [Compound 643] | 64 | 59 | 75 | 72
23 | Br.FC(F)(F)c1cccc(Nc2nc(-c3cccnc3)cs2)c1 [compound 101] | 54 | 53 | 62 | 65
24 | Br.Cc1cccc(Nc2nc(-c3cnn4ccccc34)cs2)c1 [compound 119] | 49 | 49 | 62 | 62
25 | Cl.c1ccn2c(-c3csc(Nc4ccc5c(c4)CCO5)n3)cnc2c1 [compound 579] | 49 | 50 | 72 | 75
26 | Cl.FC(F)(F)c1cccc(Nc2nc(-c3ccoc3)cs2)c1 [compound 518] | 38 | 44 | 62 | 59
27 | Brc1cccc(Nc2nc(-c3cnc4ccccn34)cs2)c1 [Compound 466] | 57 | 49 | 95 | 86
